The species named for assay [1] is Homo sapiens. Briefly: Improvement in disease symptoms in patient with COPD assessed as TEV level at 200 mg/day co-treated with 10 mg/day Loratadine and measured after 6 weeks by spirometry (reference value: 1.8 L/secs). It is filed as functional.
For assay [2], the species on record is Homo sapiens. Briefly: Improvement in disease symptoms in patient with COPD assessed as TEV level at 200 mg/day co-treated with 10 mg/day Loratadine and measured after 6 weeks by spirometry (reference value: 1.4 L/secs). It is filed as functional.
For assay [3], the species on record is Homo sapiens. Briefly: Improvement in disease symptoms in patient with COPD assessed as TEV level at 200 mg/day co-treated with 10 mg/day Loratadine and measured after 6 weeks by spirometry (reference value: 1.5 L/secs). It is filed as functional.
The species named for assay [4] is Homo sapiens. Nature of the assay: Improvement in disease symptoms in patient with COPD assessed as TEV level at 200 mg/day co-treated with 10 mg/day Loratadine and measured after 6 months by spirometry (reference value: 0.4 L/secs). It counts as functional.
The species entered for assay [5] is Homo sapiens. Briefly: Improvement in disease symptoms in patient with COPD assessed as TEV level at 200 mg/day co-treated with 10 mg/day Loratadine and measured after 6 weeks by spirometry (reference value: 0.4 L/secs). It is filed as functional.
Assay [6] is filed under the species Homo sapiens. Nature of the assay: Improvement in disease symptoms in patient with COPD assessed as TEV level at 200 mg/day co-treated with 10 mg/day Loratadine and measured after 12 months by spirometry (reference value: 1.5 L/secs). It counts as functional.
For assay [7], the species on record is Homo sapiens. Briefly: Improvement in disease symptoms in patient with COPD assessed as TEV level at 200 mg/day co-treated with 10 mg/day Loratadine and measured after 6 weeks by spirometry relative to control. It counts as functional.
The species entered for assay [8] is Homo sapiens. Nature of the assay: Improvement in disease symptoms in patient with COPD assessed as TEV level at 200 mg/day co-treated with 10 mg/day Loratadine and measured after 8 months by spirometry (reference value: 1.4 L/secs). It is filed as functional.
For assay [9], the species on record is Homo sapiens. Briefly: Improvement in disease symptoms in patient with COPD assessed as TEV level at 200 mg/day co-treated with 10 mg/day Loratadine and measured after 6 months by spirometry (reference value: 1.8 L/secs). It counts as functional.
The species named for assay [10] is Homo sapiens. Nature of the assay: Improvement in disease symptoms in patient with COPD assessed as TEV level at 200 mg/day co-treated with 10 mg/day Loratadine and measured after 6 months by spirometry (reference value: 1.2 L/secs). It counts as functional.
For assay [11], the species on record is Homo sapiens. Briefly: Improvement in disease symptoms in patient with COPD assessed as TEV level at 200 mg/day co-treated with 10 mg/day Loratadine and measured after 10 months by spirometry (reference value: 0.4 L/secs). It counts as functional.
The species entered for assay [12] is Homo sapiens. Briefly: Improvement in disease symptoms in patient with COPD assessed as TEV level at 200 mg/day co-treated with 10 mg/day Loratadine and measured after 12 months by spirometry (reference value: 1.8 L/secs). It is filed as functional.
The species named for assay [13] is Homo sapiens. Briefly: Improvement in disease symptoms in patient with COPD assessed as TEV level at 200 mg/day co-treated with 10 mg/day Loratadine and measured after 6 months by spirometry (reference value: 1.5 L/secs). It counts as functional.
Assay [14] is filed under the species Homo sapiens. Briefly: Improvement in disease symptoms in patient with COPD assessed as increase in TEV level at 200 mg/day co-treated with 10 mg/day Loratadine and measured after 8 months by spirometry relative to untreated control. It is filed as functional.
Assay [15] is filed under the species Homo sapiens. Nature of the assay: Improvement in disease symptoms in patient with COPD assessed as increase in TEV level at 200 mg/day co-treated with 10 mg/day Loratadine and measured after 10 months by spirometry relative to untreated control. It is filed as functional.
The species entered for assay [16] is Homo sapiens. Briefly: Improvement in disease symptoms in patient with COPD assessed as TEV level at 200 mg/day co-treated with 10 mg/day Loratadine and measured after 6 months by spirometry (reference value: 1.4 L/secs). It counts as functional.
The species entered for assay [17] is Homo sapiens. Briefly: Improvement in disease symptoms in patient with COPD assessed as TEV level at 200 mg/day co-treated with 10 mg/day Loratadine and measured after 6 weeks by spirometry (reference value: 1.2 L/secs). It counts as functional.
Assay [18] has as its system Homo sapiens. Briefly: Improvement in disease symptoms in GERD patient assessed as improvement in disease symptoms at 200 mg dosed daily co-treated with 10 mg anti-H1 drug loratadine dosed daily relative to control. It is filed as functional.
Assay [19] deals with Homo sapiens. Briefly: Improvement in disease symptoms in GERD patient assessed as improvement in disease symptoms at 200 mg dosed daily co-treated with 10 mg anti-H1 drug loratadine dosed daily and 150 mg anti-H2 drug Ranitidine dosed daily. It counts as functional.
In assay [20] the test system is Homo sapiens. Briefly: Improvement in disease symptoms in GERD patient assessed as reduction in regurgitation at 10 mg dosed daily. It is filed as functional, organism-based.
Assay [21] deals with Homo sapiens. Briefly: Improvement in disease symptoms in GERD patient assessed as reduction in cough at 10 mg dosed daily. It is filed as functional, organism-based.
Assay [22] concerns Homo sapiens. Nature of the assay: Improvement in disease symptoms in GERD patient assessed as reduction in heartburns at 10 mg dosed daily. It counts as functional, organism-based.
In assay [23] the test system is Homo sapiens. Nature of the assay: Improvement in disease symptoms in GERD patient assessed as improvement in global disease scores at 10 mg dosed daily. It is filed as functional, organism-based.
Assay [24] deals with Homo sapiens. Briefly: Improvement in disease symptoms in GERD patient assessed as reduction in regurgitation at 150 mg dosed daily. It is filed as functional, organism-based.
The subject of assay [25] is Homo sapiens. Nature of the assay: Improvement in disease symptoms in GERD patient assessed as reduction in cough at 150 mg dosed daily. It is filed as functional, organism-based.
For assay [26], the system named is Homo sapiens. Briefly: Improvement in disease symptoms in GERD patient assessed as reduction in heartburns at 150 mg dosed daily. It is filed as functional, organism-based.
Assay [27] concerns Homo sapiens. Briefly: Improvement in disease symptoms in GERD patient assessed as improvement in global disease scores at 150 mg dosed daily. It is filed as functional, organism-based.

Each structure is given as a SMILES string. Calls of active or inactive are those of the source. The calls are words filed in the database; no cut-off is given here.

Turning to `CCOc1c(N)c2c(c(OCC)c1OCC)C(C1c3c(cc4c(c3OC)OCO4)CCN1C)OC2=O` (configuration not stated) [TRITOQUALINE], the Activity in the assay filed under Homo sapiens [1] was found to be 2.1 L/s; in the assay filed under Homo sapiens [2], 1.7 L/s; in the assay filed under Homo sapiens [3], 1.7 L/s; in the assay filed under Homo sapiens [4], 0.8 L/s; in the assay filed under Homo sapiens [5] it was 0.6 L/s; in the assay listed under Homo sapiens [6] it was 2 L/s. Besides, the Activity in the assay listed under Homo sapiens [7] was 71.4%; in the assay listed under Homo sapiens [8] it was 2.4 L/s; in the assay listed under Homo sapiens [9] it was 2.1 L/s; in the assay listed under Homo sapiens [10], 1.9 L/s; in the assay filed under Homo sapiens [11], 0.9 L/s; in the assay listed under Homo sapiens [12] it was 2.6 L/s. The Activity was 1.9 L/s in the assay listed under Homo sapiens [13]; 71.4% in the assay listed under Homo sapiens [14]; 125% in the assay listed under Homo sapiens [15]; 2.1 L/s in the assay filed under Homo sapiens [16]; 1.8 L/s in the assay listed under Homo sapiens [17]; 82.9% in the assay with Homo sapiens [18]. In the assay on Homo sapiens [19], the Activity is recorded as 209.5%.
In the case of `CCOC(=O)N1CCC(=C2c3ccc(Cl)cc3CCc3cccnc32)CC1`, the outcome with Homo sapiens [20], in the assay with Homo sapiens [21], in the assay with Homo sapiens [22] and in the assay with Homo sapiens [23] was inactive.
Consider `CNC(=C[N+](=O)[O-])NCCSCc1ccc(CN(C)C)o1`, for which the result in the assay on Homo sapiens [24], in the assay on Homo sapiens [25], with Homo sapiens [26] and in the assay on Homo sapiens [27] was inactive.

Source of the values: ChEMBL document CHEMBL4476877, “Treatment of COPD, gastro-esophageal reflux disease (GERD), food allergies and other gastrointestinal conditions and disorders ameliorated by proper histamine management using a combination of histidine decarboxylase inhibitors, LRA drugs, anti-H1 and/or anti-H2 drugs” (2012).
